In this experiment the test system is U87MG cells. Nature of the experiment: Cellular assay, inhibition of 2-HG production in U87MG cells. Particulars: Homo sapiens, U-87 MG, 48 h. Format: cell-based. As for the experimental part: Cells (HT1080 or U87MG) are grown in T125 flasks in DMEM containing 10% FBS, 1× penicillin/streptomycin and 500 ug/mL G418 (present in U87MG cells only). They are harvested by trypsin and seeded into 96 well white bottom plates at a density of 5000 cell/well in 100 ul/well in DMEM with 10% FBS. […] Cells are incubated overnight at 37° C. in 5% CO2. The next day test compounds are made up at 2× the final concentration and 100 ul are added to each cell well. The final concentration of DMSO is 0.2% and the DMSO control wells are plated in row G. The plates are then placed in the incubator for 48 hours. […] The cell plate is placed back in the incubator for another 24 hours. At 72 hours post compound addition, 10 mL/plate of Promega Cell Titer Glo reagent is thawed and mixed. The cell plate is removed from the incubator and allowed to equilibrate to room temperature. Then 100 ul of Promega Cell Titer Glo reagent is added to each well of media. The cell plate is then placed on an orbital shaker for 10 minutes and then allowed to sit at room temperature for 20 minutes. The plate is then read for luminescence with an integration time of 500 ms.

The values below come from patent US10640534B2 (Agios Pharmaceuticals, Inc., priority 2012, dated 2020).

In general, IC50 refers to the concentration that gives 50% inhibition.

Compound `N#Cc1ccnc(N2C(=O)[C@@H](O)C[C@H]2C(=O)N(c2cc(F)cc(F)c2)[C@H](C(=O)NC2CCC(F)(F)CC2)c2ccccc2Cl)c1` [Compound 174, (2S,4S)—N—((S)-1-(2-Chlorophenyl)-2-((4,4-difluorocyclohexyl)amino)-2-oxoethyl)-1-(4-cyanopyridin-2-yl)-N-(3,5-difluorophenyl)-4-hydroxy-5-oxopyrrolidine-2-carboxamide] displayed an IC50 of less than 0.1 µM. The compound `N#Cc1ccnc(N2C(=O)CC[C@H]2C(=O)N(c2cccc(CO)c2)[C@H](C(=O)NC2CC(F)(F)C2)c2ccccc2Cl)c1` [Compound 131, (S)—N—((S)-1-(2-Chlorophenyl)-2-(3,3-difluorocyclobutylamino)-2-oxoethyl)-1-(4-cyanopyridin-2-yl)-N-(3-(hydroxymethyl)phenyl)-5-oxopyrrolidine-2-carboxamide] came in with an IC50 of less than 0.1 µM. Under `CS(=O)(=O)c1cccc(N(C(=O)[C@@H]2CCC(=O)N2c2nccc(C#N)n2)[C@H](C(=O)NC2CCC(F)(F)CC2)c2ccccc2Cl)c1` [Compound 103, (S)—N—((S)-1-(2C)-2-((4,4-difluorocyclohexyl)amino)-2-oxoethyl)-1-(4-cyanopyrimidin-2-yl)-N-(3-(methylsulfonyl)phenyl)-5-oxopyrrolidine-2-carboxamide] stands 0.1 to 0.5 µM; under `N#Cc1ccnc(N2C(=O)CC[C@H]2C(=O)N(c2cc(F)cc(S(N)(=O)=O)c2)[C@H](C(=O)NC2CC(F)(F)C2)c2ccccc2Cl)c1` [Compound 158, (2S)—N-(1-(2-chlorophenyl)-2-(3,3-difluorocyclobutylamino)-2-oxo-ethyl)-1-(4-cyanopyridin-2-yl)-N-(3-fluoro-5-sulfamoylphenyl)-5-oxopyrrolidine-2-carboxamide], less than 0.1 µM. Under `N#Cc1ccnc(N2C(=O)CC[C@H]2C(=O)N(c2cccc(OCCO)c2)[C@H](C(=O)NC2CC(F)(F)C2)c2ccccc2Cl)c1` (single isomer, unassigned) [Compound 130] stands less than 0.1 µM; under `O=C(NC1CC(F)(F)C1)[C@H](c1ccccc1Cl)N(C(=O)[C@@H]1COC(=O)N1c1ncccn1)c1cccc(F)c1` [Compound 9, (S)—N—((S)-1-(2-chloro-phenyl)-2-(3,3-difluorocyclo-butylamino)-2-oxoethyl)-N-(3-fluorophenyl)-2-oxo-3-(pyrimidin-2-yl)oxazolidine-4-carboxamide], less than 0.1 µM.

In turn, `N#Cc1ccnc(N2C(=O)CCC[C@H]2C(=O)N(c2cccc(F)c2)[C@H](C(=O)NC2CC(F)(F)C2)c2ccccc2Cl)c1` [Compound 55, (S)—N—((S)-1-(2-Chlorophenyl)-2-(3,3-difluorocyclobutylamino)-2-oxoethyl)-1-(4-cyanopyridin-2-yl)-N-(3-fluorophenyl)-6-oxopiperidine-2-carboxamide] came in with an IC50 of less than 0.1 µM. The result for `O=C(NC1CC(F)(F)C1)[C@H](c1ccccc1Cl)N(C(=O)[C@@H]1CCC(=O)N1c1cc(Cl)ccn1)c1cccc(F)c1` [Compound 33] reads 0.1 to 0.5 µM. Under `CS(=O)(=O)c1cc(F)cc(N(C(=O)[C@@H]2CCC(=O)N2c2nccc(C#N)n2)[C@H](C(=O)NC2CCC(F)(F)CC2)c2ccccc2Cl)c1` [Compound 168, (S)—N—((S)-1-(2-Chlorophenyl)-2-((4,4-difluorocyclohexyl)amino)-2-oxoethyl)-1-(4-cyanopyrimidin-2-yl)-N-(3-fluoro-5-(methylsulfonyl)phenyl)-5-oxopyrrolidine-2-carboxamide] stands less than 0.1 µM; under `N#Cc1cc(F)cc(N(C(=O)[C@@H]2CCC(=O)N2c2cc(C#N)ccn2)[C@H](C(=O)NC2CC(F)(F)C2)c2ccccc2F)c1` [Compound 207, (S)—N-(3-Cyano-5-fluorophenyl)-1-(4-cyanopyridin-2-yl)-N—((S)-2-((3,3-difluorocyclobutyl)amino)-1-(2-fluorophenyl)-2-oxoethyl)-5-oxopyrrolidine-2-carboxamide], less than 0.1 µM; under `CS(=O)(=O)c1cc(F)cc(N(C(=O)[C@@H]2CCC(=O)N2c2nccc(C#N)n2)[C@H](C(=O)NC2CC(F)(F)C2)c2ccccc2Cl)c1` [Compound 109, (S)—N—((S)-1-(2-Chlorophenyl)-2-((3,3-difluorocyclobutyl)amino)-2-oxoethyl)-1-(4-cyanopyrimidin-2-yl)-N-(3-fluoro-5-(methylsulfonyl)phenyl)-5-oxopyrrolidine-2-carboxamide], 0.1 to 0.5 µM. Under `O=C(NC1CC(F)(F)C1)[C@H](c1ccccc1Cl)N(C(=O)[C@@H]1CCC(=O)N1c1ncccn1)c1cccc(F)c1` [Compound 1] stands 0.1 to 0.5 µM; under `N#Cc1ccnc(N2C(=O)CC[C@H]2C(=O)N(c2ccc3[nH]ncc3c2)[C@H](C(=O)NC2CCC(F)(F)CC2)c2ccccc2Cl)c1` [Compound 203, (S)—N—((S)-1-(2-Chlorophenyl)-2-((4,4-difluorocyclohexyl)amino)-2-oxoethyl)-1-(4-cyanopyridin-2-yl)-N-(1H-indazol-5-yl)-5-oxopyrrolidine-2-carboxamide], less than 0.1 µM.

For `CC(C)(O)c1cc(F)cc(N(C(=O)[C@@H]2CCOC(=O)N2c2cc(C#N)ccn2)[C@H](C(=O)NC2CC(F)(F)C2)c2ccccc2Cl)c1` [Compound 146, (S)—N—((S)-1-(2-Chlorophenyl)-2-(3,3-difluorocyclobutylamino)-2-oxoethyl)-3-(4-cyanopyridin-2-yl)-N-(3-fluoro-5-(2-hydroxypropan-2-yl)phenyl)-2-oxo-1,3-oxazinane-4-carboxamide], the IC50 is less than 0.1 µM.

As to `N#Cc1ccnc(N2C(=O)OC[C@H]2C(=O)N(c2cccc(F)c2)[C@H](C(=O)NC2CCC(F)(F)CC2)c2ccccc2Cl)c1` [Compound 78, (S)—N—((S)-1-(2-Chlorophenyl)-2-((4,4-difluorocyclohexyl)amino)-2-oxoethyl)-3-(4-cyano-pyridin-2-yl)-N-(3-fluorophenyl)-2-oxooxazolidine-4-carboxamide], the IC50 is less than 0.1 µM. The result for `N#Cc1ccnc(N2C(=O)OCC[C@H]2C(=O)N(c2cncc(F)c2)[C@H](C(=O)NC2CC(F)(F)C2)c2ccccc2Cl)c1` [Compound 143, (S)—N—((S)-1-(2-Chlorophenyl)-2-((3,3-difluorocyclobutyl)amino)-2-oxoethyl)-3-(4-cyanopyridin-2-yl)-N-(5-fluoropyridin-3-yl)-2-oxo-1,3-oxazinane-4-carboxamide] reads less than 0.1 µM; that for `N#Cc1ccnc(N2C(=O)OC[C@H]2C(=O)N(c2cccc(F)c2)[C@H](C(=O)NC2CC(F)(F)C2)c2ccccc2Cl)c1` [Compound 77, (S)—N—((S)-1-(2-Chlorophenyl)-2-(3,3-difluorocyclobutylamino)-2-oxoethyl)-3-(4-cyanopyridin-2-yl)-N-(3-fluorophenyl)-2-oxooxazolidine-4-carboxamide], less than 0.1 µM; that for `N#Cc1ccnc(N2C(=O)OC[C@H]2C(=O)N(c2cncc(F)c2)[C@H](C(=O)NC2CC(F)(F)C2)c2ccccc2Cl)c1` [Compound 135, (S)—N—((S)-1-(2-Chlorophenyl)-2-((3,3-difluorocyclobutyl)amino)-2-oxoethyl)-3-(4-cyanopyridin-2-yl)-N-(5-fluoropyridin-3-yl)-2-oxooxazolidine-4-carboxamide], less than 0.1 µM.

Regarding `O=C(NC1CC(F)(F)C1)C(c1c(Cl)cccc1Cl)N(C(=O)[C@@H]1CCC(=O)N1c1ncccn1)c1cccc(F)c1` (some centres unmarked) [Compound 51], the IC50 lay in the range of 0.1 to 0.5 µM.

In the case of `O=C(NC1CCC(F)(F)CC1)[C@H](c1ccccc1Cl)N(C(=O)[C@@H]1CCC(=O)N1c1cscn1)c1cccc(F)c1` [Compound 74], the half-inhibitory concentration (IC50) was less than 0.1 µM.
